Measurements reported in PubChem BioAssay (NCI).
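Dose response: 5 concentrations. Exposure: 48 h. Format: 96-well plates. Endpoint: linear interpolation; highest concentration if not reached. GI50 = concentration required for 50% inhibition of growth. At the TGI there is no net growth.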

What was measured:
Test in all cases: NCI-60 cell line screen, 48 h
HL-60(TB) leukemia = tested on: HL-60(TB) leukemia
HOP-62 NSCLC = tested on: HOP-62 NSCLC
HOP-92 NSCLC = tested on: HOP-92 NSCLC
OVCAR-8 ovarian = tested on: OVCAR-8 ovarian
SF-295 CNS = tested on: SF-295 CNS
SF-539 CNS = tested on: SF-539 CNS
SK-MEL-2 melanoma = tested on: SK-MEL-2 melanoma
SN12C renal = tested on: SN12C renal
SNB-75 CNS = tested on: SNB-75 CNS
MDA-MB-435 = tested on: MDA-MB-435

Row | Structure (SMILES) | TGI (HL-60(TB) leukemia) | TGI (HOP-62 NSCLC) | TGI (HOP-92 NSCLC) | TGI (OVCAR-8 ovarian) | TGI (SF-295 CNS) | TGI (SF-539 CNS) | TGI (SK-MEL-2 melanoma) | TGI (SN12C renal) | TGI (SNB-75 CNS) | TGI (MDA-MB-435) | GI50 (HOP-92 NSCLC) | GI50 (MDA-MB-435) | GI50 (OVCAR-8 ovarian) | GI50 (SF-295 CNS) | GI50 (SF-539 CNS) | GI50 (SK-MEL-2 melanoma) | GI50 (SN12C renal) | GI50 (SNB-75 CNS) | GI50 (HL-60(TB) leukemia) | GI50 (HOP-62 NSCLC)
1 | CCC/C(=N\NC(=O)c1cc2ccccc2cc1O)C(CC)C(=O)CCC(=O)N(Cc1ccccc1)Cc1ccccc1 (centres undefined) | 40.1 µM | > 100 µM | > 100 µM | > 100 µM | > 100 µM | > 100 µM | 77.8 µM | > 100 µM | > 100 µM | – | – | – | – | – | – | – | – | – | – | –
2 | CCN(CC)CCOc1ccc(C(=C2CCCCC2)c2ccc(OCCN(CC)CC)cc2)cc1 | 2.56 µM | 3.27 µM | 3.94 µM | 3.13 µM | 3.3 µM | 2.96 µM | 3.52 µM | 3.09 µM | 2.94 µM | – | – | – | – | – | – | – | – | – | – | –
3 | CCN(CC(COc1ccc2c(c1)[n+]([O-])nc(N)[n+]2[O-])OC(C)=O)C(C)=O (centres undefined) | > 100 µM | > 100 µM | – | > 100 µM | > 100 µM | > 100 µM | > 100 µM | > 100 µM | > 100 µM | > 100 µM | – | – | – | – | – | – | – | – | – | –
4 | CC(=O)NC(CCCCNC(=O)N(C)N=O)C(=O)NCc1ccccc1 (centres undefined) | – | > 100 µM | > 100 µM | > 100 µM | > 100 µM | > 100 µM | > 100 µM | > 100 µM | > 100 µM | – | – | – | – | – | – | – | – | – | – | –
5 | O=C(O)C1OC(Oc2cc(O)c3c(=O)cc(-c4ccc(O)cc4)oc3c2)C(O)C(O)C1O (centres undefined) | > 100 µM | > 100 µM | – | > 100 µM | > 100 µM | > 100 µM | > 100 µM | > 100 µM | > 100 µM | – | – | – | – | – | – | – | – | – | – | –
6 | CC(C)Oc1ccc(C(=O)N[C@H](CNC(=O)CN(C)C)Cc2ccc(-c3cn4cccc([C@H](C)O)c4n3)cc2)cc1Cl | – | – | 24.3 µM | 26.6 µM | 14.6 µM | 1.19 µM | 11.1 µM | 20.4 µM | 13.3 µM | 12.8 µM | 11.2 µM | 0.0293 µM | 0.0674 µM | 0.0372 µM | 0.0323 µM | 0.0434 µM | 0.0661 µM | 0.0222 µM | – | –
7 | C[C@]12CC[C@H]3[C@@H](C[C@@H]4N=C(c5ccc(O)cc5)S[C@@]45C[C@H](O)CC[C@]35C)[C@@H]1CC[C@@H]2O | > 100 µM | 50.5 µM | – | > 100 µM | 2.03 µM | 3.23 µM | 69.4 µM | – | 25.7 µM | > 100 µM | – | 16.4 µM | 40.9 µM | 0.413 µM | 0.454 µM | 4.42 µM | – | 1.84 µM | 4.09 µM | 5.26 µM
8 | O=C1C(N2C(=O)c3ccccc3C2=O)CN1C(COCc1ccccc1)c1ccc(OCc2ccccc2)cc1 (centres undefined) | > 100 µM | > 100 µM | > 100 µM | > 100 µM | > 100 µM | > 100 µM | – | > 100 µM | > 100 µM | – | – | – | – | – | – | – | – | – | – | –
9 | CC1=C(C(=O)Nc2ccccc2C)C(c2ccc(C3C(C(=O)Nc4ccccc4C)=CNC=C3C(=O)Nc3ccccc3C)cc2)C(C(=O)Nc2ccccc2C)=C(C)N1 | 29.9 µM | 48.7 µM | 46.4 µM | > 74.8 µM | 37.7 µM | 19.6 µM | 31.6 µM | 21.9 µM | 54.8 µM | – | – | – | – | – | – | – | – | – | – | –
10 | CN(C)/C=N/c1nc2ncn(CCOC(=O)c3ccccc3)c2c(=O)[nH]1 | > 100 µM | > 100 µM | > 100 µM | > 100 µM | > 100 µM | > 100 µM | > 100 µM | > 100 µM | > 100 µM | – | – | – | – | – | – | – | – | – | – | –
11 | Cc1nc2cc(N)c(Cl)cc2[nH]1 | > 100 µM | > 100 µM | – | > 100 µM | > 100 µM | – | > 100 µM | > 100 µM | > 100 µM | > 100 µM | – | – | – | – | – | – | – | – | – | –
12 | Cc1ccc(S(=O)(=O)n2cc(-c3nnnn3-c3ccc(Cl)cc3)c(=O)c3ccccc32)cc1 | 31 µM | > 100 µM | – | > 100 µM | > 100 µM | > 100 µM | > 100 µM | > 100 µM | > 100 µM | > 100 µM | – | > 100 µM | > 100 µM | 52.9 µM | > 100 µM | > 100 µM | > 100 µM | 39.6 µM | 12.9 µM | 73.6 µM
13 | CC(O[Si](C)(C)C)C1C=CC(C)n2c(=O)n(-c3ccccc3)c(=O)n21 (centres undefined) | > 100 µM | > 100 µM | – | > 100 µM | > 100 µM | > 100 µM | > 100 µM | – | – | – | – | – | – | – | – | – | – | – | – | –
14 | CSc1ccc2c(cc1=O)[C@@H](NC(=O)c1ccc(F)cc1)CCc1cc(O)c(O)c(O)c1-2 | > 100 µM | > 100 µM | > 100 µM | > 100 µM | > 100 µM | > 100 µM | > 100 µM | > 100 µM | > 100 µM | – | – | – | – | – | – | – | – | – | – | –
15 | COC(=O)C(Cc1nc2ccccc2[nH]c1=O)C(=O)C(=O)Nc1ccc(OC)cc1[N+](=O)[O-] (centres undefined) | > 100 µM | > 100 µM | > 100 µM | > 100 µM | > 100 µM | > 100 µM | > 100 µM | > 100 µM | – | – | – | – | – | – | – | – | – | – | – | –
16 | CCOC(=O)/C=C/c1ccccn1 | > 100 µM | > 100 µM | > 100 µM | > 100 µM | > 100 µM | > 100 µM | > 100 µM | > 100 µM | > 100 µM | – | – | – | – | – | – | – | – | – | – | –
17 | ClC[Si]12OCCN(CCO1)CCO2 | > 100 µM | – | > 100 µM | > 100 µM | > 100 µM | > 100 µM | > 100 µM | > 100 µM | > 100 µM | – | – | – | – | – | – | – | – | – | – | –
18 | O=c1/c(=C/c2ccc3c(c2)OCO3)sc2nnc(-c3ccco3)n12 | > 100 µM | > 100 µM | – | > 100 µM | > 100 µM | > 100 µM | > 100 µM | > 100 µM | 71.2 µM | – | – | – | – | – | – | – | – | – | – | –
19 | O=[N+]([O-])c1ccc(-c2cn(-c3ccc(Cl)cc3)cn2)cc1 | > 100 µM | 34.6 µM | – | > 100 µM | 36.9 µM | – | > 100 µM | > 100 µM | 35.2 µM | > 100 µM | – | – | – | – | – | – | – | – | – | –
20 | N#CC1=C(c2ccccc2)C(O)(c2ccccc2)NC1=O (centres undefined) | > 100 µM | > 100 µM | 75.2 µM | > 100 µM | > 100 µM | 63.3 µM | > 100 µM | > 100 µM | > 100 µM | – | – | – | – | – | – | – | – | – | – | –
21 | Oc1cc2c(cc1O)-c1[nH]ncc1CC2 | 76.6 µM | > 100 µM | 66.4 µM | > 100 µM | > 100 µM | > 100 µM | > 100 µM | > 100 µM | 70.5 µM | – | – | – | – | – | – | – | – | – | – | –
22 | Cc1cc2c(cc1C)[n+](=O)c(C(=O)/C=C/c1ccccc1Cl)c(C)n2[O-] | 99.6 µM | 58.9 µM | – | 63.8 µM | > 100 µM | 42.6 µM | 68.7 µM | > 100 µM | 47.5 µM | – | – | – | – | – | – | – | – | – | – | –
